Measurements published in US20050064382A1, “Method of prevention of lysosomal leakage in eukaryotic cells by using 6-methyluracil based water-soluble compounds and method of producing thereof” (priority 2002, published 2005).

How the values were obtained:
[1] = system: HUCVEC exposed to human TNF-alpha; experiment: HUCVEC Assays 4-6: exposure to human TNF-alpha, trypan-blue test; type: cell-based; conditions: Glucural 500 mkg/ml
Description: To test for cell damage, HUCVEC were exposed for period of 6 to 24 hours to the human TNF-alpha. The trypan-blue test was used. After exposure, mono-layers were removed by trypsin treatment. Results were estimated based on the percentage of colored dead cells in the mono-layer.

THP-1 cells [2] = experiment: Longer-duration growth of THP-1 cells after DMSO shock and starvation, live cells; type: cell-based, human
Description: Growth was measured after the administration of “DMSO Shock” and without a change of medium. […] Trypan-blue test was used: the number of live cells per 0.1 ml (based on 4 counting iterations).

Drosophila = experiment: Sterol-deficit diet and both drugs: frequency of X-chromosomes loss in late oocytes of Drosophila; type: in vivo
Source text: The classic genetic model was used, based on the well-known method: the frequency of mutations in Drosophila (fruit flies) caused by X-rays. It is known that the frequency of these mutations can be increased by adding to the food of females certain membrane destabilizers (we used Polyene Antibiotics—Amphotericin B), or by the use of a special diet. Like all insects, Drosophila obtain all of their sterols from food (yeast for Drosophila). A special diet rich with Nistatin (Polyene antibiotic) resistant yeast was used.
The frequency of the loss of x-chromosomes (males excluded) was measured after crossing with the […]. Females were given a dose of 1000 Roentgens 5 days before being given the food additive or “special diet”.
Influence of sterol-deficit diet and both drugs on the frequency of X-chromosomes loss in late oocytes of Drosophila. Groups 1-4 received yeast of wild type, groups 5,6 (diet) received nistatin resistant yeasts meaning groups 5,6 had abnormal sterols in membranes: […]

mice = experiment: Toxicity LD50; type: in vivo
THP-1 cells [3] = experiment: Long-term growth of THP-1 cells without change of medium (starvation); type: cell-based, human
MEL cells [4] = experiment: Mild damage: cells damaged by one freeze/thaw cycle; type: cell-based, mouse; conditions: 24 hours
Description: Mild Damage: Influence of Glucural on cells damaged by one-freeze/thaw cycle. Cells were treated exactly as above except that they were subjected to one freeze/thaw cycle (in the absence of cryo-protector) prior to incubation at 37° C. for 24 hours.

Intact MEL cells = experiment: Cell toxicity of Glucural in intact conditions: growth of MEL; type: cell-based, mouse; conditions: for number of cells per ml, Regular conditions: 24 hours
[5] = system: Human umbilical cord vein endothelial cells (HUCVEC); experiment: HUCVEC Assay 1: enzymatic and mechanical damage; type: cell-based; conditions: after 7 days, without change of medium
Description: Glucural was also tested on two primer cell cultures for protection against cell death in sub-optimal conditions.
Human umbilical cord vein endothelial cells (HUCVEC) were isolated from freshly obtained human umbilical cords in accordance with known methods. HUCVEC were grown in multi-well plates. After saturation of the wells, the assays were initiated. Four wells were used for each experimental group. To cause “mechanical” damage, a higher (2-2½ times) centrifugal speed was used to pick up cells after trypsin treatment. To cause enzymatic damage, full-strength trypsin solution was used instead of the recommended diluted concentration. All assays were started from the last change of medium in wells with saturated cell culture (well bottoms were covered completely by cells). Results were estimated from the percentage of the bottom covered by cells on the last day of the assay.
Assay 1. Enzymatic and mechanical damage to cells: Growth after 7 days, without change of medium.

MEL cells [6] = experiment: Moderate damage: storage three days at −135° C. then growth in 1% DMSO; type: cell-based, mouse; conditions: 24 hours
Description: The cells were then brought to −135° C. over a two-hour period and stored at this temperature for 3 days. […] The number of cells per ml. is x 10^4, columns represent different assays.

[7] = system: immortal human monocytes (THP-1 cells); experiment: Short-term growth of THP-1 cells in 10% DMSO (trypan-blue test); type: cell-based
Description: Percentage of dead cells (trypan-blue test) and concentrations of live cells (×1,000,000 cells/ml) were determined. The growth medium was RPMI 1640 with fetal serum and other supplements.

[8] = standard tests by Dr. Kirk Sperber, unpublished data; cited from earlier work
[9] = 10% DMSO plus Glucural 10 mkg/ml, 4.5 hrs
[10] = 10% DMSO plus Glucural 10 mkg/ml, 24 hrs
[11] = 10% DMSO plus Glucural 20 mkg/ml, 4.5 hrs
[12] = 10% DMSO plus Glucural 20 mkg/ml, 24 hrs
[13] = 10% DMSO plus Glucural 50 mkg/ml, 4.5 hrs
[14] = 10% DMSO plus Glucural 50 mkg/ml, 24 hrs

Substance: complex of 2,4-dihydroxy-6-methylpyrimidine with N-methyl-D-glucamine [Glucural]
- Percent of dead cells in mono-layer ([1]; Assay 4, 24 hours, TNF-alpha 20 ng/ml): 10.3 ± 1.3%
- Percent of dead cells in mono-layer ([1]; Assay 4, 24 hours, no TNF-alpha): 4.4 ± 0.4%
- Percent of dead cells in mono-layer ([1]; Assay 5, 8 hours, TNF-alpha 10 ng/ml): 4.1 ± 0.4%
- Percent of dead cells in mono-layer ([1]; Assay 5, 8 hours, TNF-alpha 20 ng/ml): 5.4 ± 0.4%
- Percent of dead cells in mono-layer ([1]; Assay 5, 8 hours, no TNF-alpha): 5.7 ± 0.5%
- Percent of dead cells in mono-layer ([1]; Assay 6, 6 hours, TNF-alpha 40 ng/ml): 10.9 ± 3.4%
- Percent of dead cells in mono-layer ([1]; Assay 6, 6 hours, no TNF-alpha): 13.8 ± 2.7%
- optimal dose for THP-1 cells (THP-1 cells [2]): 25 mkg/ml
- number of live cells per 0.1 ml (THP-1 cells [2]; B Control + Glucural 25 mkg/ml, assay #1, 5 days growing): 241 ± 24 per 0.1 ml
- number of live cells per 0.1 ml (THP-1 cells [2]; B Control + Glucural 25 mkg/ml, assay #3, 4 days growing): 136 ± 5 per 0.1 ml
- number of live cells per 0.1 ml (THP-1 cells [2]; B Control + Glucural 25 mkg/ml, assay #4, 4 days growing): 160 ± 22 per 0.1 ml
- number of live cells per 0.1 ml (THP-1 cells [2]; D DMSO shock + Glucural 25 mkg/ml, assay #1, 5 days growing): 228 ± 48 per 0.1 ml
- number of live cells per 0.1 ml (THP-1 cells [2]; D DMSO shock + Glucural 25 mkg/ml, assay #2, 6 days growing): 184 ± 19 per 0.1 ml
- number of live cells per 0.1 ml (THP-1 cells [2]; D DMSO shock + Glucural 25 mkg/ml, assay #3, 4 days growing): 137 ± 6 per 0.1 ml
- number of live cells per 0.1 ml (THP-1 cells [2]; D DMSO shock + Glucural 25 mkg/ml, assay #4, 4 days growing): 222 ± 42 per 0.1 ml
- Protective Effect of Glucural, % (Drosophila; Amphotericin B/Glucural vs Amphotericin B): 26%
- Frequency of X-Chromosomes loss, % (Drosophila; Diet (nistatin resistant yeasts)): 4.1 ± 0.33%
- Protective Effect of Glucural, % (Drosophila; Diet/Glucural vs Diet): 27%
- Protective Effect of Glucural, % (Drosophila; Glucural vs Control): 50%
- Frequency of X-Chromosomes loss, % (Drosophila; yeast of wild type): 0.9 ± 0.14%
- LD50 equivalent for a 50-kg person (mice; extrapolated from mice): 100 g
- LD50 (mice; mice): about 2 g/kg
- percentage of dead cells (trypan blue test) (THP-1 cells [3]; Glucural 10 mkg/ml, 3 days of growing): 2.1 ± 0.5%
- percentage of dead cells (trypan blue test) (THP-1 cells [3]; Glucural 10 mkg/ml, 4 days of growing): 7.2 ± 1.3%
- percentage of dead cells (trypan blue test) (THP-1 cells [3]; Glucural 10 mkg/ml, 10 days of growing): 10.7 ± 0.2%
- percentage of dead cells (trypan blue test) (THP-1 cells [3]; Glucural 10 mkg/ml, 14 days of growing): 15.3 ± 0.2%
- percentage of dead cells (trypan blue test) (THP-1 cells [3]; Glucural 20 mkg/ml, 3 days of growing): 5.5 ± 0.25%
- percentage of dead cells (trypan blue test) (THP-1 cells [3]; Glucural 20 mkg/ml, 4 days of growing): 0%
- percentage of dead cells (trypan blue test) (THP-1 cells [3]; Glucural 20 mkg/ml, 10 days of growing): 10.85 ± 0.35%
- percentage of dead cells (trypan blue test) (THP-1 cells [3]; Glucural 20 mkg/ml, 14 days of growing): 15.3 ± 0.5%
- number of cells per ml, Mild damage (MEL cells [4]; Glucural 25 mkg/ml): 36 x 10^4
- number of cells per ml, Mild damage (MEL cells [4]; Glucural 50 mkg/ml): 53 ± 5 x 10^4
- number of cells per ml, Mild damage (MEL cells [4]; Glucural 100 mkg/ml): 40 ± 1 x 10^4
- number of cells per ml, Mild damage (MEL cells [4]; Glucural 200 mkg/ml): 45 ± 0 x 10^4
- number of cells per ml, Mild damage (MEL cells [4]; Glucural 400 mkg/ml): 31 ± 1 x 10^4
- number of cells per ml, Regular conditions (Intact MEL cells; Glucural 25 mkg/ml): 67 ± 1 x 10^4
- number of cells per ml, Regular conditions (Intact MEL cells; Glucural 50 mkg/ml): 68 ± 1 x 10^4
- number of cells per ml, Regular conditions (Intact MEL cells; Glucural 100 mkg/ml): 71 ± 2 x 10^4
- number of cells per ml, Regular conditions (Intact MEL cells; Glucural 200 mkg/ml): 58 ± 3 x 10^4
- number of cells per ml, Regular conditions (Intact MEL cells; Glucural 400 mkg/ml): 69 ± 5 x 10^4
- influence on cells in regular conditions (Intact MEL cells; Glucural from 25 to 400 mkg/ml): no influence
- Percent of well-bottom covered by cells ([5]; Glucural 40 mkg/ml): 2-5%
- Percent of well-bottom covered by cells ([5]; Glucural 400 mkg/ml): 70-80%
- number of cells per ml, Moderate damage (MEL cells [6]; Glucural 25 mkg/ml): 58 ± 3 x 10^4
- number of cells per ml, Moderate damage (MEL cells [6]; Glucural 50 mkg/ml): 76 ± 1 x 10^4
- number of cells per ml, Moderate damage (MEL cells [6]; Glucural 100 mkg/ml): 82 ± 1 x 10^4
- number of cells per ml, Moderate damage (MEL cells [6]; Glucural 200 mkg/ml): 163 ± 3 x 10^4
- Percentage of dead cells (trypan-blue test) [7, 9]: 13.3 ± 1.3%
- concentrations of live cells [7, 9]: 1.06 ± 0.08 ×1,000,000 cells/ml
- Percentage of dead cells (trypan-blue test) [7, 10]: 40.5 ± 0.5%
- concentrations of live cells [7, 10]: 2.21 ± 0.26 ×1,000,000 cells/ml
- Percentage of dead cells (trypan-blue test) [7, 11]: 2.6 ± 2.0%
- concentrations of live cells [7, 11]: 0.52 ± 0.05 ×1,000,000 cells/ml
- Percentage of dead cells (trypan-blue test) [7, 12]: 36.1 ± 0.75%
- concentrations of live cells [7, 12]: 0.86 ± 0.04 ×1,000,000 cells/ml
- Percentage of dead cells (trypan-blue test) [7, 13]: 17.2 ± 0.4%
- concentrations of live cells [7, 13]: 0.65 ± 0.03 ×1,000,000 cells/ml
- Percentage of dead cells (trypan-blue test) [7, 14]: 39.5 ± 1.1%
- concentrations of live cells [7, 14]: 1.31 ± 0.02 ×1,000,000 cells/ml
- anti-inflammatory action compared with thalidomide [8]: equal anti-inflammatory action as thalidomide
